This is an account of results in the PolyMetriX glass transition set.

As to `*/C(C)=C(/*)[Si](C)(C)C[Si](C)(C)C` (repeat unit), the glass transition temperature was 200.00 °C. As for `*/C=C/CC(C*)(C(=O)OC12CC3CC(CC(C3)C1)C2)C(=O)OC12CC3CC(CC(C3)C1)C2` (repeat unit), the figure is 34.00 °C; as for `*/C=C/CCCC(Cl)CCC*` (repeat unit), -63.00 °C. As for `*C(=O)NCCNC(=O)c1ncn(C)c1*` (repeat unit), the figure is 189.00 °C.

`*C/C=C/C[Si](*)(C)CCCOc1ccccc1` (repeat unit) returned a glass transition temperature of -30.00 °C. For `*C/C=C/C[Si](*)(C)c1ccccc1` (repeat unit) the value was -1.00 °C; for `*CC(*)c1ccccc1C(=O)OCCN(C)C` (repeat unit), 69.00 °C. For the compound `*CC(*)c1ccccc1C(=O)Oc1ccccc1` (repeat unit), the glass transition temperature was determined as 124.00 °C. As for `*CC(*)c1ccccc1COCCC(C)C` (repeat unit), the figure is 78.00 °C; as for `*CC(*)c1ccccc1COCCCC` (repeat unit), 67.00 °C.

For `*CC(*)c1ccccc1COCCCCC` (repeat unit), the glass transition temperature is 47.00 °C.

Consider `*CC(*)c1ccccc1COCCc1ccccc1` (repeat unit), for which the glass transition temperature stood at 63.00 °C. As for `*CC(*)c1ccccc1COCc1ccccc1` (repeat unit), the figure is 72.00 °C. `*CC(*)c1ccccc1OC(C)=O` (repeat unit): the glass transition temperature is 118.00 °C.

For `*CC(*)c1cccs1` (repeat unit), the glass transition temperature was 71.00 °C. For `*CC(*)c1nc(C)nc(C)n1` (repeat unit) the value was 70.00 °C; for `*CC(*)n1ccnc1` (repeat unit), 175.00 °C.

With `*CC(*)n1cncn1` (repeat unit), the glass transition temperature was 165.00 °C. For `*CC(C)(C)C1C(=O)N(C2CCCCC2)C(=O)C1*` (repeat unit) the value was 192.00 °C; for `*CC(C)CCC(C)CNC(=O)c1cc(C(=O)N*)cc(C(C)(C)C)c1` (repeat unit), 149.00 °C; for `*CC(CCCCCCCCCCCCCCCC)C1C(=O)N(CCCCCCCCCCCC)C(=O)C1*` (repeat unit), 30.00 °C. As for `*CC(OC)C1(C)C(=O)OC(=O)C1(*)C` (repeat unit), the figure is 260.00 °C; as for `*CC(OC)C1C(=O)OC(=O)C1*` (repeat unit), 153.50 °C; as for `*CC(OCC)C1(C)C(=O)OC(=O)C1(*)C` (repeat unit), 244.00 °C. For `*CC(c1ccccc1)C1C(=O)N(CCCCNC(=O)C(F)(F)C(F)(F)C(F)(F)C(F)(F)C(F)(F)C(F)(F)C(F)(F)F)C(=O)C1*` (repeat unit) the value was 113.00 °C. Turning to `*CC(c1ccccc1)C1C(=O)N(CCCN(CC)c2ccc(/N=N/c3ccc([N+](=O)[O-])cc3)c(C)c2)C(=O)C1*` (repeat unit), the glass transition temperature amounted to 137.00 °C. `*CC(c1ccccc1)C1C(=O)N(CCCN(CC)c2ccc(/N=N/c3ccc([N+](=O)[O-])cc3Cl)c(C)c2)C(=O)C1*` (repeat unit) showed a glass transition temperature of 149.00 °C. For `*CC(c1ccccc1)C1C(=O)N(CCCOc2ccc(-c3ccc(C#N)cc3)cc2)C(=O)C1*` (repeat unit) the value was 130.00 °C. As for `*CC(c1ccccc1)C1C(=O)N(c2ccc(Oc3ccccc3)cc2)C(=O)C1*` (repeat unit), the figure is 194.00 °C; as for `*CC(c1ccccc1)C1C(=O)N(c2ccccc2)C(=O)C1*` (repeat unit), 221.00 °C. `*CC/C=C/C[Si](*)(C)c1ccccc1` (repeat unit): the glass transition temperature is -14.90 °C. As for `*CC1(*)CC(=O)N(c2ccccc2)C1=O` (repeat unit), the glass transition temperature is 236.00 °C. As to `*CC1CC(*)C(OC(=O)CCCCCCCCCCOc2ccc(-c3ccc(C#N)cc3)cc2)C1OC(=O)CCCCCCCCCCOc1ccc(-c2ccc(C#N)cc2)cc1` (repeat unit), the glass transition temperature stood at 14.50 °C. As for `*CC1CCC(COC(=O)CCC(=O)O*)CC1` (repeat unit), the figure is -1.00 °C. `*CC1CCCC(CNC(=O)CCCCC(=O)N*)C1` (repeat unit) had a glass transition temperature of 107.00 °C. The compound `*CCC([2H])C(*)([2H])C` (repeat unit) gave a glass transition temperature of -47.50 °C.

In turn, `*CCC(c1ccccc1)[Si](*)(C)C` (repeat unit) displayed a glass transition temperature of 27.00 °C. As for `*CCC1C(=O)N(CCCC)C(=O)C1*` (repeat unit), the figure is 67.90 °C; as for `*CCC1C(=O)N(CCCCCCCCCCCC)C(=O)C1*` (repeat unit), 55.40 °C; as for `*CCC1C(=O)N(CCCCCCCCCCCCCCCC)C(=O)C1*` (repeat unit), 65.60 °C. In the case of `*CCC1C(=O)N(c2ccc(N(C)C)cc2)C(=O)C1*` (repeat unit), the glass transition temperature was found to be 195.00 °C. For `*CCC1CC(*)C2CCCC12` (repeat unit) the value was 101.00 °C; for `*CCC1C[N+](C)(C)CC1*` (repeat unit), -6.70 °C; for `*CCCC(*)(C)C(=O)O` (repeat unit), 132.00 °C. For `*CCCC(*)(C)CC` (repeat unit) the value was -23.00 °C.

For `*CCCC(*)C` (repeat unit), the glass transition temperature is -52.60 °C.

In the case of `*CCCC1(CCCNC(=O)CCCCC(=O)N*)c2ccccc2-c2ccccc21` (repeat unit), the glass transition temperature amounted to 120.00 °C.

For the compound `*CCCCCCCCCCCCNC(=O)CCP(C)(=O)CCC(=O)N*` (repeat unit), the glass transition temperature stood at 44.00 °C. As for `*CCCCCCCCCCNC(=O)CCP(C)(=O)CCC(=O)N*` (repeat unit), the figure is 45.50 °C; as for `*CCCCCCCCCCOC(=O)CC/C=C/CCC(=O)O*` (repeat unit), -15.00 °C; as for `*CCCCCCCCCOC(=O)CCC(=O)O*` (repeat unit), 31.00 °C. The compound `*CCCCCCCCNC(=O)C(OC)C(OC)C(=O)N*` (repeat unit) returned a glass transition temperature of 89.00 °C. The compound `*CCCCCCNC(=O)C(OC)C(OC)C(=O)N*` (repeat unit) displayed a glass transition temperature of 106.00 °C. As for `*CCCCCCNC(=O)CCC(C)(C)c1ccc(C(C)(C)CCC(=O)N*)cc1` (repeat unit), the figure is 93.2 °C; as for `*CCCCCCNC(=O)CCC(C)CC(=O)N*` (repeat unit), 17.00 °C; as for `*CCCCCCNC(=O)CCC1(CCC(=O)N*)c2ccccc2-c2ccccc21` (repeat unit), 122.00 °C.

Consider `*CCCCCCNC(=O)c1cc(C(=O)N*)cc(C(C)(C)C)c1` (repeat unit), for which the glass transition temperature worked out at 163.00 °C. As for `*CCCCCCNC(=O)c1cc(NC(=O)c2ccc(NC(=O)C(CC(C)C)N3C(=O)c4ccccc4C3=O)cc2)cc(C(=O)N*)c1` (repeat unit), the figure is 200.00 °C; as for `*CCCCCNC(=O)C(OC)C(OC)C(=O)N*` (repeat unit), 113.00 °C.

`*CCCNC(=O)C(OC)C(OC)C(=O)N*` (repeat unit) had a glass transition temperature of 123.00 °C. For `*CCCOC(=O)CCC(=O)O*` (repeat unit) the value was -34.70 °C; for `*CCCOC(=O)CCCC(=O)O*` (repeat unit), -33.00 °C; for `*CCOC(=O)CCC(=O)OCCOC(=O)c1ccc(C(=O)O*)cc1` (repeat unit), 24.00 °C.

On to `*NC(C)CCC(C)(C)CCCNC(=O)c1ccc(C(*)=O)cc1` (repeat unit), for which the glass transition temperature was determined as 150.00 °C. As for `*NC1CCC(CC(C)(C)NC(=O)CCCCC(*)=O)CC1` (repeat unit), the figure is 80.00 °C. As for `*NNC(=O)c1ccc(C(*)=O)cc1OCCCCC` (repeat unit), the figure is 234.00 °C; as for `*O[Si](C)(C)CCC/N=C1C=C/C(=N/CCC[Si](*)(C)C)c2c(O)ccc(O)c2\1` (repeat unit), 32.90 °C.

In turn, `*O[Si](C)(C)CCCC(=O)Oc1ccc(/C=N/c2ccc(Cc3ccc(/N=C/c4ccc(OC(=O)CCC[Si](*)(C)C)cc4)cc3)cc2)cc1` (repeat unit) came in with a glass transition temperature of 68.00 °C. As for `*O[Si](C)(CCC(F)(F)F)CCC(F)(F)C(F)(F)C(F)(F)C(F)(F)C(F)(F)C(F)(F)C(F)(F)C(F)(F)C(F)(F)C(F)(F)CC[Si](*)(C)CCC(F)(F)F` (repeat unit), the figure is -11.00 °C. `*O[Si](C)(CCC(F)(F)F)CCC(F)(F)C(F)(F)C(F)(F)C(F)(F)CC[Si](*)(C)CCC(F)(F)F` (repeat unit) registered a glass transition temperature of -25.00 °C.

Regarding `*O[Si](C)(CCC(F)(F)F)CCC(F)(F)C(F)(F)CC[Si](*)(C)CCC(F)(F)F` (repeat unit), the glass transition temperature is -27.00 °C.

In turn, `*Oc1ccc(C2(c3ccc(OC(=O)CCC(*)=O)cc3)c3ccccc3-c3ccccc32)cc1` (repeat unit) gave a glass transition temperature of 234.00 °C. For `*Oc1ccc(CC(NC(=O)CCc2ccc(OC(=O)CCC(C)CC(*)=O)cc2)C(=O)OCc2ccccc2)cc1` (repeat unit) the value was 55.00 °C; for `*Oc1ccccc1C(=O)OC(=O)c1ccccc1OC(=O)CCCC(*)=O` (repeat unit), 50.00 °C. Regarding `*c1ccc2c(c1)C(=O)N(c1cc(C(=O)Nc3c(C)cc(-c4cc(C)c(NC(=O)c5ccc(C)c(N6C(=O)c7ccc(C(*)(C(F)(F)F)C(F)(F)F)cc7C6=O)c5)c(C)c4)cc3C)ccc1C)C2=O` (repeat unit), the glass transition temperature is 250.00 °C.
